# Measured values: patent US9980486B2, “Herbicidal quinolines” (Syngenta Participations AG, priority 2014, dated 2018)
# Key:
# Assay type in all cases: in vivo
# [1] = system: Panicum miliaceum (PANMI); experiment: Experiment B2 comparative glasshouse herbicide test, pre- and post-emergence, phytotoxicity
# Experimental: (§1) A comparative test is performed to compare the efficacy of quinoline compounds of the present invention with quinoline compounds taught in WO2014/037342 and napthyridines taught in WO2013/092834. Seeds of a variety of test species were sown in standard soil in pots. After cultivation for one day (pre-emergence) or after 10 days cultivation (post-emergence) under controlled conditions in a glasshouse (at 24/16° C., day/night; 14 hours light; 65% humidity), the plants were sprayed with an aqueous spray solution derived from the formulation of the technical active ingredient in 0.6 ml acetone and 45 ml formulation solution containing 10.6% Emulsogen EL (Registry number 61791-12-6), 42.2% N-methyl pyrrolidone, 42.2% dipropylene glycol monomethyl ether (CAS RN 34590-94-8) and 0.2% X-77 (CAS RN 11097-66-8). The test plants were then grown in a glasshouse under controlled conditions in a glasshouse (at 24/16° C., day/night; 14 hours light; 65% humidity) and watered twice daily. After 14 days for post-emergence and 21 days for pre-emergence and phytotoxicity evaluated using a five point scale (5=80-100%; 4=60-79%; 3=40-59%; 2=20-39%; 1=0-19%). Test Plants:—Eriochloa villosa (ERBVI), Panicum miliaceum (PANMI).
# [2] = system: Eriochloa villosa (ERBVI); experiment: as above
# Experimental: as §1
# [3] = system: Echinochloa crus-galli (ECHCG); experiment: Experiment B1 glasshouse herbicide test, pre- and post-emergence, percentage damage; details: evaluated after 13 days
# Experimental: (§2) Seeds of a variety of test species are sown in standard soil in pots (Lolium perenne (LOLPE), Solanum nigrum (SOLNI), Amaranthus retoflexus (AMARE), Setaria faberi (SETFA), Echinochloa crus-galli (ECHCG), Ipomoea hederacea (IPOHE)). After cultivation for one day (pre-emergence) or after 8 days cultivation (post-emergence) under controlled conditions in a glasshouse (at 24/16° C., day/night; 14 hours light; 65% humidity), the plants are sprayed with an aqueous spray solution derived from the formulation of the technical active ingredient in acetone/water (50:50) solution containing 0.5% Tween 20 (polyoxyethelyene sorbitan monolaurate, CAS RN 9005-64-5). […] The test plants are then grown in a glasshouse under controlled conditions in a glasshouse (at 24/16° C., day/night; 14 hours light; 65% humidity) and watered twice daily. After 13 days for pre and post-emergence, the test is evaluated for the percentage damage caused to the plant. The biological activities are shown in the following table on a five point scale (5=80-100%; 4=60-79%; 3=40-59%; 2=20-39%; 1=0-19%).
# [4] = system: Ipomoea hederacea (IPOHE); experiment: as above; details: evaluated after 13 days
# Experimental: as §2
# [5] = system: Setaria faberi (SETFA); experiment: as above; details: evaluated after 13 days
# Experimental: as §2
# [6] = system: Lolium perenne (LOLPE); experiment: as above; details: evaluated after 13 days
# Experimental: as §2
# [7] = system: Amaranthus retoflexus (AMARE); experiment: as above; details: evaluated after 13 days
# Experimental: as §2
# [8] = system: Solanum nigrum (SOLNI); experiment: as above; details: evaluated after 13 days
# Experimental: as §2
# [9] = POST Application (60 g/ha), after 10 days cultivation, evaluated after 14 days
# [10] = PRE Application (250 g/ha), after cultivation for one day, evaluated after 21 days
# [11] = POST Application (post-emergence, after 8 days cultivation), 1000 g/h
# [12] = PRE Application (pre-emergence, after cultivation for one day), 1000 g/h
# [13] = POST Application (post-emergence), applied at 250 g/ha
# [14] = PRE Application (pre-emergence), applied at 250 g/ha
SMILES,"percentage damage caused to the plant, five point scale, ECHCG [3, 11]","percentage damage caused to the plant, five point scale, ECHCG [3, 12]","percentage damage caused to the plant, five point scale, IPOHE [4, 11]","percentage damage caused to the plant, five point scale, IPOHE [4, 12]","percentage damage caused to the plant, five point scale, SETFA [5, 11]","percentage damage caused to the plant, five point scale, SETFA [5, 12]","percentage damage caused to the plant, five point scale, LOLPE [6, 11]","percentage damage caused to the plant, five point scale, LOLPE [6, 12]","percentage damage caused to the plant, five point scale, AMARE [7, 11]","percentage damage caused to the plant, five point scale, AMARE [7, 12]","percentage damage caused to the plant, five point scale, SOLNI [8, 11]","percentage damage caused to the plant, five point scale, SOLNI [8, 12]",other results
"Cn1nnnc1NC(=O)c1cc2cccnc2c(-c2ccccc2)c1C(F)(F)F [Compound 1.001, N-(1-methyltetrazol-5-yl)-8-phenyl-7-(trifluoromethyl)-quinoline-6-carboxamide]",5 (5=80-100%),5 (5=80-100%),5 (5=80-100%),5 (5=80-100%),5 (5=80-100%),5 (5=80-100%),5 (5=80-100%),5 (5=80-100%),5 (5=80-100%),5 (5=80-100%),5 (5=80-100%),5 (5=80-100%),"phytotoxicity, five point scale, PANMI [1, 9]: 5 (5=80-100%); phytotoxicity, five point scale, PANMI [1, 10]: 5 (5=80-100%); phytotoxicity, five point scale, ERBVI [2, 9]: 5 (5=80-100%); phytotoxicity, five point scale, ERBVI [2, 10]: 3 (3=40-59%)"
COc1ccc(-c2c(C)c(C(=O)Nc3nnnn3C)cc3ccc(C)nc23)cc1 [Compound 1.037],5 (5=80-100%),5 (5=80-100%),5 (5=80-100%),4 (4=60-79%),5 (5=80-100%),5 (5=80-100%),5 (5=80-100%),3 (3=40-59%),5 (5=80-100%),5 (5=80-100%),5 (5=80-100%),5 (5=80-100%),
Cc1ccc2cc(C(=O)Nc3nnnn3C)c(C)c(-c3ccc(S(C)(=O)=O)cc3)c2n1 [Compound 1.038],5 (5=80-100%),5 (5=80-100%),5 (5=80-100%),4 (4=60-79%),5 (5=80-100%),5 (5=80-100%),5 (5=80-100%),4 (4=60-79%),5 (5=80-100%),5 (5=80-100%),5 (5=80-100%),5 (5=80-100%),
Cn1nnnc1NC(=O)c1cc2cccnc2c(-c2ccccc2)c1[S+](C)[O-] (stereo not shown) [Compound 1.045],,,,,,,,,,,,,"percentage damage caused to the plant, five point scale, ECHCG [3, 13]: 5 (5=80-100%); percentage damage caused to the plant, five point scale, ECHCG [3, 14]: 4 (4=60-79%); percentage damage caused to the plant, five point scale, IPOHE [4, 13]: 5 (5=80-100%); percentage damage caused to the plant, five point scale, IPOHE [4, 14]: 2 (2=20-39%); percentage damage caused to the plant, five point scale, SETFA [5, 13]: 5 (5=80-100%); percentage damage caused to the plant, five point scale, SETFA [5, 14]: 1 (1=0-19%); percentage damage caused to the plant, five point scale, LOLPE [6, 13]: 3 (3=40-59%); percentage damage caused to the plant, five point scale, LOLPE [6, 14]: 1 (1=0-19%); percentage damage caused to the plant, five point scale, AMARE [7, 13]: 5 (5=80-100%); percentage damage caused to the plant, five point scale, AMARE [7, 14]: 4 (4=60-79%); percentage damage caused to the plant, five point scale, SOLNI [8, 13]: 5 (5=80-100%); percentage damage caused to the plant, five point scale, SOLNI [8, 14]: 4 (4=60-79%)"
